This is an account of results in US20240391942A1 (priority 2021, published 2024).

What is called IC50 is the concentration needed to halve the response being measured.

What all share (assay): cells
Holding throughout (format): cell-based

One test relates to A-375. The note with it: Homo sapiens, A-375, 72 h.
A further test has as its system HCC827. The note with it: Homo sapiens, HCC827, 72 h.
The next test deals with SK-HEP-1. The following applies: Homo sapiens, SK-HEP1, 72 h.
In the next test the test system is NCI-H1299. The note with it: Homo sapiens, NCI-H1299, 72 h.
A further test deals with U-937. The following applies: Homo sapiens, U-937, 72 h.
The next test has as its system A549. The note with it: Homo sapiens, A549, 72 h.
For the next test, the system named is SK-OV-3. The note with it: Homo sapiens, SK-OV-3, 72 h.
The next test concerns A-431. The note with it: Homo sapiens, A-431, 72 h.

Turning to `CN[C@@H]1C[C@H]2O[C@@](C)([C@@H]1OC)n1c3ccccc3c3c4c(c5c6ccccc6n2c5c31)C(=O)NC4` [Staurosporine], the IC50 in the test on A-375 stood at 0.018 µM; with HCC827, 0.0161 µM; with SK-HEP-1, 0.0169 µM; in the test with NCI-H1299, 0.0092 µM; in the test with U-937, 0.0139 µM; with A549, 0.0131 µM. In addition, the figures for the IC50 with SK-OV-3 and with A-431 were 0.028 µM and 0.0211 µM, respectively.
